Data on 17 compounds can be found in patent US20170037007A1, “SUBSTITUTED N-(2-(AMINO)-2OXOETHYL)BENZAMIDE INHIBITORS OF AUTOTAXIN AND THEIR PREPARATION AND USE IN THE TREATMENT OF LPA-DEPENDENT OR LPA-MEDIATED DISEASES” (X-Rx, Inc., priority 2014, published 2017).

The experiment addresses T1, Autotaxin (Homo sapiens, UniProt Q13822).
T1 construct: purchased X-Chem
The experiment is described as follows: Autotaxin LPC Cascade Assay. Type of experiment: biochemical. The settings on record: 5 nM autotaxin, 100 μM LPC, choline oxidase/HRP/Ampliflu Red fluorescence readout; read-out: IC50 ATX activity values, IC50. As for the experimental part: Autotaxin LPC Cascade Assay
HA130 and Test Compounds:
Highest final concentration is […] for HA130 (Echelon, B-0701) and 30 μM for test compounds. Prepare a 1 mM stock of HA130 and a 3 mM stock of each compound in 100% DMSO. Perform a 1:3 serial dilution in DMSO (transfer 5 μl of compound to 10 μl of DMSO). Add 240 μl of buffer to generate a top working concentration of 40 µM (HA130) and 120 µM (test compound) in 4% DMSO.
Ampliflu Red—Prepare a stock of 5 mM from 100 mM in 100% DMSO. Further dilute to a working concentration of 400 μM in buffer (8% DMSO).
Together with compound this yields a 2% DMSO final concentration.
Choline Oxidase/HRP—0.8 U/ml CO and 8 U/ml HRP.
Add 5 μl of ATX and 5 μl of compound in a 384 well plate (Corning 3676). Incubate for 10 mins at RT. Add 5 μl of LPC and incubate for 1 hr on the plate shaker. Prepare the CO/HRP and AR prior to use. Add 2.5 μl of CO/HRP and follow with 2.5 μl AR. Note order of addition, CO/HRP mix before AR. Read fluorescence intensity (λex/λem: 530/590 nm) kinetically for 30 min at RT on the Tecan M1000.

In general, IC50 refers to the concentration that gives 50% inhibition. `CC(C)[C@@H](NC(=O)c1cc(C(F)(F)F)ccc1F)C(=O)N1CCC(C)(Nc2ccc(C(=O)O)cc2)CC1` [Example 21, (R)-4-(1-(2-(2-Fluoro-5-(trifluoromethyl)benzamido)-3-methylbutanoyl)-4-methylpiperidin-4-ylamino)benzoic acid]: the IC50 lay within 100 to 500 nM.

In the case of `CC(C)[C@@H](NC(=O)c1cc(C(F)(F)F)ccc1F)C(=O)N1CCC(Nc2ccc(C(=O)O)cc2)CC1` [Example 24, (R)-4-(1-(2-(2-Fluoro-5-(trifluoromethyl)benzamido)-3-methylbutanoyl)piperidin-4-ylamino)benzoic acid], the IC50 is not below 10000 nM.

Regarding `Cc1cccc(C(=O)N[C@@H](C(=O)N2CCC(C)(N(C)c3ccccc3)CC2)C(C)C)c1` [Example 20, (R)-3-Methyl-N-(3-methyl-1-(4-methyl-4-(methyl(phenyl)amino)piperidin-1-yl)-1-oxobutan-2-yl)benzamide], the concentration for half-maximal inhibition (IC50) lay within 500 to 5000 nM.

`CC(C)c1ccc(F)c(C(=O)N[C@@H](C(=O)N2CCC(C)(Nc3ccc(S(C)(=O)=O)cc3)CC2)C(C)C)c1` [Example 36, (R)-2-Fluoro-5-isopropyl-N-(3-methyl-1-(4-methyl-4-(4-(methylsulfonyl)phenylamino)piperidin-1-yl)-1-oxobutan-2-yl)benzamide]: the IC50 is 10 to 100 nM.

For the compound `COc1ccc(CNC2(C)CCN(C(=O)[C@H](NC(=O)c3cccc(OC(F)(F)F)c3)C(C)C)CC2)cc1` [Example 43, (R)—N-(1-(4-((4-Methoxybenzyl)amino)-4-methylpiperidin-1-yl)-3-methyl-1-oxobutan-2-yl)-3-(trifluoromethoxy)benzamide], the IC50 lay in the range of 500 to 5000 nM.

Take `CC(C)[C@@H](NC(=O)c1cc(C(F)(F)F)ccc1F)C(=O)N1CCC(Nc2ccc(S(C)(=O)=O)cc2)CC1` [Example 22, (R)-2-Fluoro-N-(3-methyl-1-(4-(4-(methylsulfonyl)phenylamino)piperidin-1-yl)-1-oxobutan-2-yl)-5-(trifluoromethyl)benzamide]: the IC50 was not below 10000 nM.

As for `CC(C)[C@@H](NC(=O)c1cc(C(C)(C)C)ccc1F)C(=O)N1CCC(C)(Nc2ccc(S(C)(=O)=O)cc2)CC1` [Example 29, (R)-5-tert-Butyl-2-fluoro-N-(3-methyl-1-(4-methyl-4-(4-(methylsulfonyl)phenylamino)piperidin-1-yl)-1-oxobutan-2-yl)benzamide], the IC50 fell in the range of 500 to 5000 nM.

Consider `CCc1ccc(F)c(C(=O)N[C@@H](C(=O)N2CCC(Oc3ccc(S(C)(=O)=O)cc3)(C(=O)N(C)C)CC2)C(C)C)c1` [Example 16, (R)-1-(2-(5-Ethyl-2-fluorobenzamido)-3-methylbutanoyl)-N,N-dimethyl-4-(4-(methylsulfonyl)phenoxy)piperidine-4-carboxamide], for which the IC50 is 500 to 5000 nM.

Turning to `CC(=O)Nc1ccc(N(C)C2(C)CCN(C(=O)[C@H](NC(=O)c3cc(C(F)(F)F)ccc3F)C(C)C)CC2)cc1` [Example 19, (R)—N-(1-(4-(4-Acetamidophenyl(methyl)amino)-4-methylpiperidin-1-yl)-3-methyl-1-oxobutan-2-yl)-2-fluoro-5-(trifluoromethyl)benzamide], the IC50 lay within 100 to 500 nM.

For the compound `CCc1cc(C(=O)N[C@@H](C(=O)N2CCC(C)(Nc3ccc(S(C)(=O)=O)cc3)CC2)C(C)C)c(F)cc1C` [Example 34, (R)-5-Ethyl-2-fluoro-4-methyl-N-(3-methyl-1-(4-methyl-4-(4-(methylsulfonyl)phenylamino)piperidin-1-yl)-1-oxobutan-2-yl)benzamide], the IC50 was 100 to 500 nM.

With `COc1ccc(NC2(C)CCN(C(=O)[C@H](NC(=O)c3cc(OC(F)(F)F)ccc3F)C(C)C)CC2)cc1` [Example 12, (R)-2-Fluoro-N-(1-(4-((4-methoxyphenyl)amino)-4-methylpiperidin-1-yl)-3-methyl-1-oxobutan-2-yl)-5-(trifluoromethoxy)benzamide], the concentration for half-maximal inhibition (IC50) was in the range of 100 to 500 nM.

With `CC(C)[C@@H](NC(=O)c1cccc(OC(F)(F)F)c1)C(=O)N1CCC(C)(NC(=O)c2ccc(S(C)(=O)=O)cc2)CC1` [Example 38, (R)—N-(3-Methyl-1-(4-methyl-4-(4-(methylsulfonyl)benzamido)piperidin-1-yl)-1-oxobutan-2-yl)-3-(trifluoromethoxy)benzamide], the IC50 was in the range of 500 to 5000 nM.

Consider `COc1ccc(NC2(C)CCN(C(=O)[C@H](NC(=O)c3cccc(OC(F)(F)F)c3)C(C)C)CC2)cc1` [Example 8, (R)—N-(1-(4-((4-Methoxyphenyl)amino)-4-methylpiperidin-1-yl)-3-methyl-1-oxobutan-2-yl)-3-(trifluoromethoxy)benzamide], for which the 50% inhibitory concentration (IC50) lay within 100 to 500 nM.

For the compound `CC(C)[C@@H](NC(=O)c1cc(Cc2ccccc2)ccc1F)C(=O)N1CCC(C)(Nc2ccc(S(C)(=O)=O)cc2)CC1` [Example 30, (R)-5-Benzyl-2-fluoro-N-(3-methyl-1-(4-methyl-4-(4-(methylsulfonyl)phenylamino)piperidin-1-yl)-1-oxobutan-2-yl)benzamide], the concentration for half-maximal inhibition (IC50) fell in the range of 500 to 5000 nM.

Regarding `CC(C)Cc1ccc(F)c(C(=O)N[C@@H](C(=O)N2CCC(C)(Nc3ccc(S(C)(=O)=O)cc3)CC2)C(C)C)c1` [Example 31, (R)-2-Fluoro-5-isobutyl-N-(3-methyl-1-(4-methyl-4-(4-(methylsulfonyl)phenylamino)piperidin-1-yl)-1-oxobutan-2-yl)benzamide], the IC50 is 10 to 100 nM.

As for `Cc1cccc(C(=O)N[C@@H](C(=O)N2CCC(C)(Nc3ccc(C#N)cc3)CC2)C(C)C)c1F` [Example 1, (R)—N-(1-(4-(4-Cyanophenylamino)-4-methylpiperidin-1-yl)-3-methyl-1-oxobutan-2-yl)-2-fluoro-3-methylbenzamide], the IC50 fell in the range of 500 to 5000 nM.

Regarding `CC(C)[C@@H](NC(=O)c1cc(C(F)(F)F)ccc1F)C(=O)N1CCC(C)(Nc2ccc(S(C)(=O)=O)cc2)CC1` [Example 27, (R)-2-Fluoro-N-(3-methyl-1-(4-methyl-4-(4-(methylsulfonyl)phenylamino)piperidin-1-yl)-1-oxobutan-2-yl)-5-(trifluoromethyl)benzamide], the IC50 is 100 to 500 nM.
